Source: article PMC6804419, “Synthesis and Inhibitory Effect of Some Indole‐Pyrimidine Based Hybrid Heterocycles on α‐Glucosidase and α‐Amylase as Potential Hypoglycemic Agents” (ChemistryOpen, 2019)

Tests used:
[1] = biological target: T1, α-amylase from Aspergillus oryzae (Aspergillus oryzae, UniProt P0C1B3); assay: α-Amylase assay; format: biochemical
T1 construct: purchased Sigma Aldrich
Protocol: (§1) α‐glucosidase type 1 from baker‘s yeast (G5003; Sigma‐Aldrich, St. Louis, MO, USA), p‐nitrophenyl α‐D‐glucopyranoside (N1377, Sigma‐Aldrich), sodiumphosphatemonobasic (S3139, Sigma‐Aldrich), sodiumphosphatedibasic (S5136, Sigma‐Aldrich), andacarbose (A8980, Sigma‐Aldrich), DMSO (Dimethylsulfoxide), α‐amylase from Aspergillus oryzae (Sigma Aldrich), starch, DNS (3, 5‐dinitrosalicylic acid), sodiumpotassiumtartratetetrahydrate.
Briefly, 250 μL (0.4 mg/mL) was preincubated with 250 μL of α‐amylase solution for 10 min at 25 °C in one set of tubes. In another set of tubes α‐amylase was preincubated with 250 μL of phosphate buffer (pH 6.9). 250 μL of starch solution at increasing concentrations (0.2–1 % (w/v)) was added to both sets of reaction mixtures to start the reaction. The mixture was then incubated for 10 min at 25 °C and then boiled for 15 min after the addition of 250 μL of DNS to stop the reaction. The amount of reducing sugars released was determined spectrophotometrically using a maltose standard curve and converted to reaction velocities.
(§2) The inhibitory concentration 50 % (IC50) values were determined from the plots of percent inhibition versus log inhibitor concentration and calculated by logarithmic regression analysis from the mean inhibitory values.

[2] = biological target: T2, α-glucosidase type 1 from baker's yeast (Saccharomyces cerevisiae, UniProt P53341); assay: α-Glucosidase inhibition assay; format: biochemical
T2 construct: purchased Sigma-Aldrich G5003
Excerpt: as §1
Concentration of α‐glucosidase and substrate. Sodium phosphate buffer (0.1 M) was adjusted by 0.1 N HCl to pH 7.0 with a pH meter (Thermo Fisher Scientific Inc., Waltham, MA, USA). p‐Nitrophenyl α‐D‐glucopyranoside (10 mM) and α‐glucosidase solutions (1 U/ml) were solubilized in 0.1 M sodium phosphate buffer (pH 7.0). All the reagents were manufactured shortly before use and warmed to 37 °C in a water bath. Sodium phosphate buffer (0.1 M, 158 μl per well) was added to a 96‐well plate. α‐Glucosidase (20 μl) and 2 μl of sample were added to 20 μl of p‐nitrophenyl α‐D‐glucopyranoside. In the 200‐μl final reaction volume (0.02 U/well, 0.1 U/ml) the substrate concentration was adjusted to […]. The background signal due to the sample color was measured at 405 nm with the PerkinElmer Wallac Victor3 spectrophotometer (PerkinElmer, Waltham, MA, USA) prior to adding the enzyme. Immediately following α‐glucosidase addition, absorbance was measured at 405 nm 8 times at 1‐min intervals.16
as §2

T2 sequence (P53341 whole entry): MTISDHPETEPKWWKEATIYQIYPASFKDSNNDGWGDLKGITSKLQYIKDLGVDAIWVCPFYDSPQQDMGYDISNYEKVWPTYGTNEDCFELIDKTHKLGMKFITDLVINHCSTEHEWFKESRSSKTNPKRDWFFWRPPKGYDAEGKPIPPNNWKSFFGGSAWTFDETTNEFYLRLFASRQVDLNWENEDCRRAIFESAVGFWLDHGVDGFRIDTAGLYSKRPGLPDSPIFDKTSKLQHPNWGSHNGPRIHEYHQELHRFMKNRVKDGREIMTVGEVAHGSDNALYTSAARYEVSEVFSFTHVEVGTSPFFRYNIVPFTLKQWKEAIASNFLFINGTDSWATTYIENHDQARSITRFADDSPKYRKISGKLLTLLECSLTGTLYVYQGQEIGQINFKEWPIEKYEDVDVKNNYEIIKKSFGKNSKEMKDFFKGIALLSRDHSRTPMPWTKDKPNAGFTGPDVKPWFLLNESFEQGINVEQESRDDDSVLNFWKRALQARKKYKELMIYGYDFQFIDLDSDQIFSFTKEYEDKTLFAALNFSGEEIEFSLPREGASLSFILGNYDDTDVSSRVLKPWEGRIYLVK

Row | Compound | IC50 [1] | melting point | IC50 [2]
1 | CCn1cc(C(=O)CC(c2cccc(Br)c2)C2C(=O)N(C)C(=O)N(C)C2=O)c2ccccc21 (centres unmarked) [5j, 5‐(1‐(3‐Bromophenyl)‐3‐(1‐ethyl‐1H‐indol‐3‐yl)‐3‐oxopropyl)‐1,3‐dimethylpyrimidine‐2,4,6(1H,3H,5H)‐trione] | 86.42 ± 0.22 µM | 130 to 131 °C | 77.05 ± 0.04 µM
2 | CCn1cc(C(=O)CC(c2ccc(F)cc2)C2C(=O)N(C)C(=O)N(C)C2=O)c2ccccc21 (centres unmarked) [5g, 5‐(3‐(1‐Ethyl‐1H‐indol‐3‐yl)‐1‐(4‐fluorophenyl)‐3‐oxopropyl)‐1,3‐dimethylpyrimidine‐2,4,6(1H,3H,5H)‐trione] | 86.42 ± 0.22 µM | 185 to 186 °C | 69.75 ± 0.01 µM
3 | CCn1cc(C(=O)CC(c2ccc(Cl)cc2Cl)C2C(=O)N(C)C(=O)N(C)C2=O)c2ccccc21 (centres unmarked) [5d, 5‐(1‐(2,4‐Dichlorophenyl)‐3‐(1‐ethyl‐1H‐indol‐3‐yl)‐3‐oxopropyl)‐1,3‐dimethylpyrimidine‐2,4,6(1H,3H,5H)‐trione] | 96.42 ± 0.22 µM | 149 to 150 °C | 58.21 ± 0.09 µM
4 | CCn1cc(C(=O)CC(c2cccs2)C2C(=O)N(C)C(=O)N(C)C2=O)c2ccccc21 (centres unmarked) [5l, 5‐(3‐(1‐Ethyl‐1H‐indol‐3‐yl)‐3‐oxo‐1‐(thiophen‐2‐yl)propyl)‐1,3‐dimethylpyrimidine‐2,4,6(1H,3H,5H)‐trione] | 35.4 ± 0.6 µM | 154 to 155 °C | 22.3 ± 0.48 µM
5 | CCn1cc(C(=O)CC(c2ccc(OC)cc2)C2C(=O)N(C)C(=O)N(C)C2=O)c2ccccc21 (centres unmarked) [5e, 5‐(3‐(1‐Ethyl‐1H‐indol‐3‐yl)‐1‐(4‐methoxyphenyl)‐3‐oxopropyl)‐1,3‐dimethylpyrimidine‐2,4,6(1H,3H,5H)‐trione] | 88.45 ± 0.32 µM | 128 to 129 °C | 61.4 ± 0.78 µM
6 | CCn1cc(C(=O)CC(c2ccc(Cl)cc2)C2C(=O)N(C)C(=O)N(C)C2=O)c2ccccc21 (centres unmarked) [5c, 5‐(1‐(4‐Chlorophenyl)‐3‐(1‐ethyl‐1H‐indol‐3‐yl)‐3‐oxopropyl)‐1,3‐dimethylpyrimidine‐2,4,6(1H,3H,5H)‐trione] | 71.24 ± 0.2 µM | 166 to 167 °C | 49.75 ± 0.01 µM
7 | CCn1cc(C(=O)CC(c2cccc(F)c2)C2C(=O)N(C)C(=O)N(C)C2=O)c2ccccc21 (centres unmarked) [5h, 5‐(3‐(1‐Ethyl‐1H‐indol‐3‐yl)‐1‐(3‐fluorophenyl)‐3‐oxopropyl)‐1,3‐dimethylpyrimidine‐2,4,6(1H,3H,5H)‐trione] | 89.45 ± 0.44 µM | 188 to 189 °C | 61.1 ± 0.42 µM
8 | CCn1cc(C(=O)CC(c2ccco2)C2C(=O)N(C)C(=O)N(C)C2=O)c2ccccc21 (centres unmarked) [5m, 5‐(3‐(1‐Ethyl‐1H‐indol‐3‐yl)‐1‐(furan‐2‐yl)‐3‐oxopropyl)‐1,3‐dimethylpyrimidine‐2,4,6(1H,3H,5H)‐trione] | 82.15 ± 0.5 µM | 188 to 189 °C | 64.35 ± 0.08 µM
9 | CCn1cc(C(=O)CC(c2ccc(Br)cc2)C2C(=O)N(C)C(=O)N(C)C2=O)c2ccccc21 (centres unmarked) [5f, 5‐(1‐(4‐Bromophenyl)‐3‐(1‐ethyl‐1H‐indol‐3‐yl)‐3‐oxopropyl)‐1,3‐dimethylpyrimidine‐2,4,6(1H,3H,5H)‐trione] | 78.25 ± 0.1 µM | 159 to 160 °C | 53.15 ± 0.12 µM
10 | CCn1cc(C(=O)CC(c2cccc(C)c2)C2C(=O)N(C)C(=O)N(C)C2=O)c2ccccc21 (centres unmarked) [5i, 5‐(3‐(1‐Ethyl‐1H‐indol‐3‐yl)‐3‐oxo‐1‐(m–tolyl)propyl)‐1,3‐dimethylpyrimidine‐2,4,6(1H,3H,5H)‐trione] | 95.25 ± 0.1 µM | 125 to 126 °C | 73.15 ± 0.12 µM
11 | CN1C(=O)C(C(CC(=O)c2cn(C)c3ccccc23)c2ccccc2)C(=O)N(C)C1=O (centres unmarked) [5a, 1,3‐Dimethyl‐5‐(3‐(1‐methyl‐1H‐indol‐3‐yl)‐3‐oxo‐1‐phenylpropyl)pyrimidine‐2,4,6(1H,3H,5H)‐trione] | 93.25 ± 0.1 µM | 185 to 186 °C | 65.14 ± 0.17 µM
12 | CCn1cc(C(=O)CC(c2ccc(C(F)(F)F)cc2)C2C(=O)N(C)C(=O)N(C)C2=O)c2ccccc21 (centres unmarked) [5k, 5‐(3‐(1‐Ethyl‐1H‐indol‐3‐yl)‐3‐oxo‐1‐(4‐(trifluoromethyl)phenyl)propyl)‐1,3‐dimethylpyrimidine‐2,4,6(1H,3H,5H)‐trione] | 47.11 ± 0.09 µM | 168 to 169 °C | 20.5 ± 0.44 µM
13 | CCn1cc(C(=O)CC(c2ccc3ccccc3c2)C2C(=O)N(C)C(=O)N(C)C2=O)c2ccccc21 (centres unmarked) [5o, 5‐(3‐(1‐Ethyl‐1H‐indol‐3‐yl)‐1‐(naphthalen‐2‐yl)‐3‐oxopropyl)‐1,3‐dimethylpyrimidine‐2,4,6(1H,3H,5H)‐trione] | 21.7 ± 0.82 µM | – | 13.02 ± 0.01 µM
14 | CCn1cc(C(=O)CC(c2ccc(C)cc2)C2C(=O)N(C)C(=O)N(C)C2=O)c2ccccc21 (centres unmarked) [5b] | 80.17 ± 0.05 µM | 155 to 156 °C | 53.15 ± 0.12 µM
15 | CCn1cc(C(=O)CC(c2ccc([N+](=O)[O-])cc2)C2C(=O)N(C)C(=O)N(C)C2=O)c2ccccc21 (centres unmarked) [5q, 5‐(3‐(1‐Ethyl‐1H‐indol‐3‐yl)‐1‐(4‐nitrophenyl)‐3‐oxopropyl)‐1,3‐ dimethylpyrimidine‐2,4,6(1H,3H,5H)‐trione] | 63 ± 0.61 µM | 198 to 199 °C | 31.12 ± 0.11 µM
16 | CCn1cc(C(=O)CC(c2cc(OC)c(OC)c(OC)c2)C2C(=O)N(C)C(=O)N(C)C2=O)c2ccccc21 (centres unmarked) [5n, 5‐(3‐(1‐Ethyl‐1H‐indol‐3‐yl)‐3‐oxo‐1‐(3,4,5‐trimethoxyphenyl)propyl)‐1,3‐dimethylpyrimidine‐2,4,6(1H,3H,5H)‐trione] | 93.25 ± 0.1 µM | 170 to 171 °C | 53.15 ± 0.12 µM
